Data set [1] can be described thus: In vitro cytotoxicity, MTT cell viability assay in HepG2 cells. The settings on record: human, Cytotoxicity CC50. In kind it is cell-based. The gist of the method: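 Parental HepG2 cells in EMEM + 10% FBS were exposed to compounds (8 half-log dilutions, 30 μM to 1.0 nM) for 7 days at 37 °C, 5% CO2. MTT was then added for 3-4 h, formazan dissolved in DMSO and absorbance read at 492 nm; CC50 came from 4-parameter fits against vehicle controls.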

Data set [2] concerns HBV replication in HepAD38 cells. Put plainly: Anti-HBV activity in HepAD38 cells, extracellular HBV DNA by QPCR. The settings on record: Hepatitis B virus, HePAD38, 168 h, read-out: Anti-HBV EC50, HepAD38 cells, extracellular HBV DNA by QPCR, 7 days of incubation. In kind it is cell-based, HBV (genotype D, serotype ayw). A digest of the protocol: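 HepAD38 cells (HepG2 with tet-repressible HBV genotype D genome) seeded overnight, tetracycline removed, then treated 7 days with compounds (half-log dilutions, 30 μM–10 nM; 1:200 from DMSO). Supernatant HBV DNA quantified by QPCR against standard curve; % inhibition vs vehicle, EC50 by 4-parameter fit.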

In turn, `O=C(Nc1ccc(F)c(Cl)c1)c1ccc(F)c(C(F)(F)C(=O)N2[C@@H]3CC[C@H]2C[C@@H](O)C3)c1` [Example 170, N-(3-chloro-4-fluorophenyl)-3-(1,1-difluoro-2-((1R,3r,5S)-3-hydroxy-8-azabicyclo[3.2.1]octan-8-yl)-2-oxoethyl)-4-fluorobenzamide] registered a half-maximal cytotoxic concentration (CC50) at 7 days in data set [1] of 5 to 30 µM. In data set [2], the EC50 is less than 5 µM.
As for `Cn1ccc(C(=O)Nc2ccc(F)c(Cl)c2)c1C(F)(F)C(=O)NOC(C)(C)C` [Example 145, 2-(2-(tert-butoxyamino)-1,1-difluoro-2-oxoethyl)-N-(3-chloro-4-fluorophenyl)-1-methyl-1H-pyrrole-3-carboxamide], the CC50 at 7 days in data set [1] is more than 30 µM. For the same compound, the 50% effective concentration (EC50) in data set [2] fell in the range of 5 to 30 µM.
In data set [1], `O=C(Nc1ccc(F)c(F)c1)c1ccc(F)c(C(F)(F)C(=O)N[C@H]2CCOC2)c1` [Example 3, (S)-3-(1,1-difluoro-2-oxo-2-((tetrahydrofuran-3-yl)amino)ethyl)-N-(3,4-difluorophenyl)-4-fluorobenzamide] displayed a CC50 at 7 days of 5 to 30 µM. In data set [2], the EC50 was in the range of 5 to 30 µM.
Compound `O=C(Nc1ccc(F)c(F)c1)c1ccc(F)c(C(F)(F)C(=O)N2CCC(O)CC2)c1` [Example 2, 3-(1,1-difluoro-2-(4-hydroxypiperidin-1-yl)-2-oxoethyl)-N-(3,4-difluorophenyl)-4-fluorobenzamide] gave a CC50 at 7 days in data set [1] of 5 to 30 µM. The EC50 in data set [2] was less than 5 µM.
For `Cc1cc(NC(=O)c2ccc(F)c(C(F)(F)C(=O)NC34CC5CC(CC3C5)C4)c2)ccc1F` [Example 271, 3-(1,1-difluoro-2-(((2R,3as,5S,6as)-hexahydro-2,5-methanopentalen-3a(1H)-yl)amino)-2-oxoethyl)-4-fluoro-N-(4-fluoro-3-methylphenyl)benzamide], the CC50 at 7 days in data set [1] was 5 to 30 µM. The EC50 in data set [2] fell in the range of 5 to 30 µM.
In data set [1], `Cc1cc(NC(=O)c2ccc(F)c(C(F)(F)C(=O)N3C4CC[C@@H]3C[C@@H](C(N)=O)C4)c2)ccc1F` [Example 257, (1R,3s,5S)-8-(2,2-difluoro-2-(2-fluoro-5-((4-fluoro-3-methylphenyl)carbamoyl)phenyl)acetyl)-8-azabicyclo[3.2.1]octane-3-carboxamide] yielded a CC50 at 7 days of 5 to 30 µM. The concentration for a half-maximal effect (EC50) in data set [2] was less than 5 µM.
In data set [1], `Cc1cc(NC(=O)c2cc(Br)c(C(F)(F)C(=O)NC(C)(C)C)s2)ccc1F` [Example 158, 4-bromo-5-(2-(tert-butylamino)-1,1-difluoro-2-oxoethyl)-N-(4-fluoro-3-methylphenyl)thiophene-2-carboxamide] had a CC50 at 7 days of 5 to 30 µM. Further, the EC50 in data set [2] lay within 5 to 30 µM.
Regarding `COC(=O)N[C@@H]1C[C@H]2COC[C@@H](C1)N2C(=O)C(F)(F)c1cc(C(=O)Nc2ccc(F)c(C)c2)ccc1F` [Example 307, methyl ((1R,5S,7r)-9-(2,2-difluoro-2-(2-fluoro-5-((4-fluoro-3-methylphenyl)carbamoyl)phenyl)acetyl)-3-oxa-9-azabicyclo[3.3.1]nonan-7-yl)carbamate], the CC50 at 7 days in data set [1] lay in the range of 5 to 30 µM. Besides, the EC50 in data set [2] is less than 5 µM.
Take `Cc1cc(NC(=O)c2cc(C(F)(F)C(=O)NC3(C)CCCOC3)n(C)c2)ccc1F` (stereo not shown) [Example 133, 5-(1,1-difluoro-2-((3-methyltetrahydro-2H-pyran-3-yl)amino)-2-oxoethyl)-N-(4-fluoro-3-methylphenyl)-1-methyl-1H-pyrrole-3-carboxamide]: in data set [1], the cytotoxic concentration (CC50) at 7 days is more than 30 µM. The EC50 in data set [2] was less than 5 µM.
`Cc1cc(NC(=O)c2ccc(N)c(C(F)(F)C(=O)N3CCC(O)CC3)c2)ccc1F` [Example 299, 4-amino-3-(1,1-difluoro-2-(4-hydroxypiperidin-1-yl)-2-oxoethyl)-N-(4-fluoro-3-methylphenyl)benzamide] yielded a CC50 at 7 days in data set [1] of 5 to 30 µM. In data set [2], the EC50 was less than 5 µM.
`Cc1cc(NC(=O)c2cc(C(F)(F)C(=O)NC(C)C)n(C)c2)ccc1F` [Example 102, 5-(1,1-difluoro-2-(isopropylamino)-2-oxoethyl)-N-(4-fluoro-3-methylphenyl)-1-methyl-1H-pyrrole-3-carboxamide] came in with a CC50 at 7 days in data set [1] of more than 30 µM. Also, the EC50 in data set [2] was less than 5 µM.
Compound `Cc1cc(NC(=O)c2cn(C)c(C(F)(F)C(=O)NC(C)(C)CO)c2C)ccc1F` [Example 129, 5-(1,1-difluoro-2-((1-hydroxy-2-methylpropan-2-yl)amino)-2-oxoethyl)-N-(4-fluoro-3-methylphenyl)-1,4-dimethyl-1H-pyrrole-3-carboxamide] displayed a CC50 at 7 days in data set [1] of more than 30 µM. Also, the EC50 in data set [2] was less than 5 µM.
As for `C=Cc1ccc(C(=O)Nc2ccc(F)c(C)c2)cc1C(F)(F)C(=O)N1CCC(O)CC1` [Example 115, 3-(1,1-difluoro-2-(4-hydroxypiperidin-1-yl)-2-oxoethyl)-N-(4-fluoro-3-methylphenyl)-4-vinylbenzamide], the cytotoxic concentration (CC50) at 7 days in data set [1] was more than 30 µM. For the same compound, in data set [2], the concentration giving a half-maximal response (EC50) is less than 5 µM.
`CC(C)(CO)NC(=O)C(F)c1cc(C(=O)Nc2ccc(F)c(F)c2)ccc1F` (stereo not shown) [Example 31, N-(3,4-difluorophenyl)-4-fluoro-3-(1-fluoro-2-((1-hydroxy-2-methylpropan-2-yl)amino)-2-oxoethyl)benzamide] returned a CC50 at 7 days in data set [1] of 5 to 30 µM. Also, the EC50 in data set [2] fell in the range of 5 to 30 µM.
In data set [1], `O=C(Nc1ccc(F)c(F)c1)c1ccc(F)c(C(F)(F)C(=O)Nc2ccc(F)cn2)c1` [Example 22, 3-(1,1-difluoro-2-((5-fluoropyridin-2-yl)amino)-2-oxoethyl)-N-(3,4-difluorophenyl)-4-fluorobenzamide] showed a half-maximal cytotoxic concentration (CC50) at 7 days of more than 30 µM. In data set [2], the EC50 was in the range of 5 to 30 µM.
The compound `O=C(Nc1ccc(F)c(F)c1)c1ccc(F)c(C(F)(F)C(=O)N2CC[C@H](CO)C2)c1` [Example 13, (S)-3-(1,1-difluoro-2-(3-(hydroxymethyl)pyrrolidin-1-yl)-2-oxoethyl)-N-(3,4-difluorophenyl)-4-fluorobenzamide] showed a CC50 at 7 days in data set [1] of 5 to 30 µM. The EC50 in data set [2] lay within 5 to 30 µM.
Regarding `Cc1cc(NC(=O)c2ccc(Cl)c(C(F)(F)C(=O)N3CCC(O)CC3)c2)ccc1F` [Example 17, 4-chloro-3-(1,1-difluoro-2-(4-hydroxypiperidin-1-yl)-2-oxoethyl)-N-(4-fluoro-3-methylphenyl)benzamide], the 50% cytotoxic concentration (CC50) at 7 days in data set [1] lay within 5 to 30 µM. In addition, the EC50 in data set [2] was less than 5 µM.
Consider `Cc1cc(NC(=O)c2ccc(F)c(C(F)(F)C(=O)N3CCc4nc(N)sc4CC3)c2)ccc1F` [Example 340, 3-(2-(2-amino-4,5,7,8-tetrahydro-6H-thiazolo[4,5-d]azepin-6-yl)-1,1-difluoro-2-oxoethyl)-4-fluoro-N-(4-fluoro-3-methylphenyl)benzamide], for which, in data set [1], the CC50 at 7 days lay in the range of 5 to 30 µM. Also, in data set [2], the EC50 was less than 5 µM.
Compound `O=C(Nc1ccc(Cl)cc1F)c1ccc(Cl)c(C(F)(F)C(=O)N2CCC(O)CC2)c1` [Example 37, 4-chloro-N-(4-chloro-2-fluorophenyl)-3-(1,1-difluoro-2-(4-hydroxypiperidin-1-yl)-2-oxoethyl)benzamide] registered a CC50 at 7 days in data set [1] of more than 30 µM. In data set [2], the EC50 was more than 30 µM.
On to `Cc1cc(NC(=O)c2ccnc(C(F)(F)C(=O)N3CCc4nc(N)sc4C3)c2)ccc1F` [Example 268, 2-(2-(2-amino-6,7-dihydrothiazolo[5,4-c]pyridin-5(4H)-yl)-1,1-difluoro-2-oxoethyl)-N-(4-fluoro-3-methylphenyl)isonicotinamide], for which the CC50 at 7 days in data set [1] was more than 30 µM. For the same compound, the EC50 in data set [2] lay in the range of 5 to 30 µM.
`Cc1cc(NC(=O)c2ccc(F)c(C(F)(F)C(=O)N3C4CC[C@@H]3C[C@H](O)C4)c2)cc(F)c1F` [Example 249, 3-(1,1-difluoro-2-((1R,3r,5S)-3-hydroxy-8-azabicyclo[3.2.1]octan-8-yl)-2-oxoethyl)-N-(3,4-difluoro-5-methylphenyl)-4-fluorobenzamide] displayed a CC50 at 7 days in data set [1] of 5 to 30 µM. Further, the concentration giving a half-maximal response (EC50) in data set [2] is less than 5 µM.
On to `COc1cc(NC(=O)c2ccc(Cl)c(C(F)(F)C(=O)N3CCC(O)CC3)c2)cc(F)c1F` [Example 61, 4-chloro-3-(1,1-difluoro-2-(4-hydroxypiperidin-1-yl)-2-oxoethyl)-N-(3,4-difluoro-5-methoxyphenyl)benzamide], for which, in data set [1], the CC50 at 7 days was more than 30 µM. Besides, the EC50 in data set [2] lay within 5 to 30 µM.
`Cc1cc(NC(=O)c2ccc(F)c(C(F)(F)C(=O)N3CCC(O)CC3(C)C)c2)ccc1F` (stereo not shown) [Example 71, 3-(1,1-difluoro-2-(4-hydroxy-2,2-dimethylpiperidin-1-yl)-2-oxoethyl)-4-fluoro-N-(4-fluoro-3-methylphenyl)benzamide] came in with a CC50 at 7 days in data set [1] of more than 30 µM. In data set [2], the concentration for a half-maximal effect (EC50) lay in the range of 5 to 30 µM.
`Cc1cc(NC(=O)c2ccc(F)c(C(F)(F)C(=O)N3CCC(O)(C(N)=O)CC3)c2)ccc1F` [Example 212, 1-(2,2-difluoro-2-(2-fluoro-5-((4-fluoro-3-methylphenyl)carbamoyl)phenyl)acetyl)-4-hydroxypiperidine-4-carboxamide]: in data set [1], the CC50 at 7 days lay in the range of 5 to 30 µM. For the same compound, the EC50 in data set [2] is less than 5 µM.
For the compound `COc1ccc(C(=O)Nc2ccc(F)c(C)c2)cc1C(F)(F)C(=O)N1CCC(O)CC1` [Example 94, 3-(1,1-difluoro-2-(4-hydroxypiperidin-1-yl)-2-oxoethyl)-N-(4-fluoro-3-methylphenyl)-4-methoxybenzamide], the CC50 at 7 days in data set [1] is more than 30 µM. The EC50 in data set [2] is less than 5 µM.
`Cc1cc(NC(=O)c2ccc(F)c(C(F)(F)C(=O)N[C@H]3CCCC[C@@H]3O)c2)ccc1F` [Example 83, 3-(1,1-difluoro-2-(((1S,2S)-2-hydroxycyclohexyl)amino)-2-oxoethyl)-4-fluoro-N-(4-fluoro-3-methylphenyl)benzamide]: the CC50 at 7 days in data set [1] is more than 30 µM. In addition, the EC50 in data set [2] lay within 5 to 30 µM.

(Values after US11247965B2 (VenatoRx Pharmaceuticals, Inc., priority 2017, dated 2022).)
